Counter-ions that a name gives are not always drawn. Like-named read-outs stand apart in the source and are kept apart here.
What was measured:
TNF-α [1] = experiment: Rat assay: LPS-challenged rats, serum TNF-α by ELISA; format: in vivo; conditions: for inhibition in vivo at 5 mg/kg: read-out: Rat LPS Model % Inhibition @ dose @ predose time
Protocol: The efficacy of the novel compounds in blocking the production of TNF also was evaluated using a model based on rats challenged with LPS. Male Harlen Lewis rats [Sprague Dawley Co.] were used in this model. Each rat weighed approximately 300 g and was fasted overnight prior to testing. Compounds administration was typically by oral gavage (although intraperitoneal, subcutaneous and intravenous administration were also used in a few instances) 1 to 24 hours prior to the LPS challenge. Rats were administered 30 μg/kg LPS [salmonella typhosa, Sigma Co.] intravenously via the tail vein. Blood was collected via heart puncture 1 hour after the LPS challenge. Serum samples were stored at −20° C. until quantitative analysis of TNF-α by Enzyme Linked-Immuno-Sorbent Assay (“ELISA”) [Biosource]. Additional details of the assay are set forth in Perretti, M., et al., Br. J. Pharmacol. (1993), 110, 868-874, which is incorporated by reference in this application.
In vivo assessment of the ability of the compounds to inhibit LPS-stimulated TNF release in the rat is shown in the column identified as:
wherein in the dose is milligram per kilogram (mpk) administered by oral gavage and the predose time indicates the number of hours before LPS challenge when the compound is administered.

TNF-α [2] = experiment: LPS stimulation of TNF production by U937 cells; format: cell-based, human; conditions: Homo sapiens; for inhibition at 1 µM: U-937, @ 1.0 uM, read-out: U937 Cell % inhib @ conc.
How it was run: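 PMA-differentiated human U937 cells (20 ng/ml PMA, 24 h, then 24-48 h rest) at 2 million cells/ml, 0.1% DMSO final, stimulated with E. coli LPS (100 ng/ml final) for 4 h at 37° C. TNF-α in medium measured by ELISA; IC50 in μM.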

human p38 kinase alpha = target: T1, human p38 kinase alpha (Homo sapiens, UniProt Q16539); experiment: p38 kinase in vitro assay, phosphorylation of biotinylated PHAS-I with gamma 32P-ATP; format: biochemical
T1 construct: The coding region of the human p38a cDNA was obtained by PCR-amplification from RNA isolated from the human monocyte cell line THP.1; GST (N); made in house; host or cells: E. coli DH10B
T1 sequence (Q16539 whole entry): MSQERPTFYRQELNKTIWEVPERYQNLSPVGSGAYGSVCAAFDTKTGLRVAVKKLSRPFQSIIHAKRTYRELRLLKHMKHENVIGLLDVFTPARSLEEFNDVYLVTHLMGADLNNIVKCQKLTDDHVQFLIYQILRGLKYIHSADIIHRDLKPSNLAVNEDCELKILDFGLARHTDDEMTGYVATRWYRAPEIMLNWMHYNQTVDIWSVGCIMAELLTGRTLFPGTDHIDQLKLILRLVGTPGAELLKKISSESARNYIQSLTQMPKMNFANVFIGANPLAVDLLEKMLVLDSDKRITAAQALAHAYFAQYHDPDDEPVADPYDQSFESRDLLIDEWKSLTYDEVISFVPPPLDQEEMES
How it was run: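 MKK6-activated human p38α phosphorylates biotinylated PHAS-I with γ-32P-ATP in 25 mM HEPES pH 7.5, 10 mM Mg acetate, 50 μM unlabeled ATP, 1% DMSO, 30 °C for 1 h or overnight. Compounds at 100–0.001 μM (10-fold steps, triplicate); substrate captured on streptavidin filter plates and counted by scintillation.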

[3] = 3 mpk oral gavage, -4h before LPS
[4] = Rattus norvegicus, po, -4 h, 3 mpk oral gavage, -4h before LPS, read-out: Rat LPS Model % inhib @ dose @ predose time
[5] = U-937, TNF production, LPS-stimulated human U937 cells, read-out: U937 Cell IC50
[6] = read-out: P38 alpha kinase IC50
[7] = 3 mpk oral gavage, 4 h before LPS challenge
[8] = Rattus norvegicus, po, 5 mpk oral gavage, 4 h before LPS challenge
[9] = read-out: P38 alpha kinase % inhib @ conc.

CC(NC(=O)C(C)(C)C)c1[nH]nc(-c2ccc(F)cc2)c1-c1ccncc1 (centres unmarked) [Example B-0601]
Rat LPS Model % inhib @ dose @ predose time (TNF-α [1]; [3]): 43% @ 3 mpk %-4h

C[C@@H](NS(=O)(=O)c1cccc(Br)c1)c1[nH]nc(-c2ccc(F)cc2)c1-c1ccncc1 [Example B-0455]
inhibition in vivo at 3 mg/kg (TNF-α [1]; [4]): 36%
inhibition at 1 µM (TNF-α [2]): 95%

O=C(O)CCC(=O)N1CCN(c2n[nH]c(-c3ccc(Cl)cc3)c2-c2ccncc2)CC1 [A-321 (monosodium salt dihydrate), 4-[5-(4-chlorophenyl)-4-(4-pyridinyl)-1H-pyrazol-3-yl]-γ-oxo-1-piperazinebutanoic acid, monosodium salt dihydrate]
inhibition in vivo at 3 mg/kg (TNF-α [1]; Rattus norvegicus, po, read-out: Rat LPS Assay % Inhibition): 14%

C[C@@H](NS(=O)(=O)N(C)C)c1[nH]nc(-c2ccc(F)cc2)c1-c1ccncc1 [Example B-0487]
inhibition in vivo at 3 mg/kg (TNF-α [1]; [4]): 54%

CC(NS(=O)(=O)c1ccc(F)c(Cl)c1)c1[nH]nc(-c2ccc(F)cc2)c1-c1ccncc1 (centres unmarked) [Example B-0643]
Rat LPS Model % inhib @ dose @ predose time (TNF-α [1]; [3]): 0% @ 3 mpk @ -4h

C[C@@H](NS(=O)(=O)Cc1ccccc1)c1[nH]nc(-c2ccc(F)cc2)c1-c1ccncc1 [Example B-0389]
inhibition in vivo at 3 mg/kg (TNF-α [1]; [4]): 62%
IC50 (TNF-α [2]; [5]): 50 nM
IC50 (human p38 kinase alpha; [6]): 10 nM

C[C@@H](NS(=O)(=O)c1ccc(-c2ccccc2)cc1)c1[nH]nc(-c2ccc(F)cc2)c1-c1ccncc1 [Example B-0481]
inhibition in vivo at 3 mg/kg (TNF-α [1]; [4]): 56%
inhibition at 1 µM (TNF-α [2]): 95%
IC50 (human p38 kinase alpha; [6]): 14 nM

C[C@@H](NS(=O)(=O)c1ccc(F)c(Cl)c1)c1[nH]nc(-c2ccc(F)cc2)c1-c1ccncc1 [Example B-0466]
inhibition in vivo at 3 mg/kg (TNF-α [1]; [4]): 0%
inhibition at 1 µM (TNF-α [2]): 98%

CCOC(=O)N[C@H](C)c1[nH]nc(-c2ccc(F)cc2)c1-c1ccncc1 [Example B-0426]
inhibition in vivo at 3 mg/kg (TNF-α [1]; [4]): 41%
IC50 (TNF-α [2]; [5]): 740 nM
IC50 (human p38 kinase alpha; [6]): 55 nM

CC(NS(=O)(=O)c1ccc(C#N)cc1)c1[nH]nc(-c2ccc(F)cc2)c1-c1ccncc1 (centres unmarked) [Example B-0656]
Rat LPS Model % inhib @ dose @ predose time (TNF-α [1]; [3]): 28% @ 3 mpk @ -4h

O=C(CO)N1CCC(c2[nH]nc(-c3ccc(Cl)cc3)c2-c2ccncn2)CC1 [Example D-1, N-(2-Hydroxyacetyl)-5-(4-piperidyl)-4-(4-pyrimidyl)-3-(4-chlorophenyl)pyrazole]
inhibition in vivo at 1 mg/kg (TNF-α [1]; Rattus norvegicus, po, 1.0 mg/kg oral gavage, 4 hours before LPS challenge, read-out: ratLPS/% Inh @1.0 (mg/kg)): 83%

Fc1ccc(-c2n[nH]cc2-c2ccnc(NCCN3CCC(N4CCCCC4)CC3)c2)cc1 [Example A-350, N-(2-[1,4′-bipiperidin]-1′-ylethyl)-4-[3-(4-fluorophenyl)-1H-pyrazol-4-yl]-2-pyridinamine]
inhibition in vivo at 20 mg/kg (TNF-α [1]; Rattus norvegicus, po, Table 9, dose 20 mg/kg): 65%

COc1ccc(S(=O)(=O)NC(C)c2[nH]nc(-c3ccc(F)cc3)c2-c2ccncc2)cc1 (centres unmarked) [Example B-0574]
Rat LPS Model % inhib @ dose @ predose time (TNF-α [1]; [3]): 37% @ 3 mpk @ -4h

O=C(c1ccc(F)cc1)N1CCC(c2[nH]nc(-c3ccc(F)cc3)c2-c2ccncc2)CC1 [Example B-1360]
Rat LPS Model % inhib @ dose @ predose time (TNF-α [1]; [7]): 54% @ 3 mpk @ -4h

CC(NS(=O)(=O)c1ccc(F)cc1)c1[nH]nc(-c2ccc(F)cc2)c1-c1ccncc1 (centres unmarked) [Example B-0562]
Rat LPS Model % inhib @ dose @ predose time (TNF-α [1]; [3]): 5% @ 3 mpk @ -4h

CN(C)CC(=O)N1CCC(c2[nH]nc(-c3ccc(Cl)cc3)c2-c2ccncc2)CC1 [Example C-122]
inhibition in vivo at 5 mg/kg (TNF-α [1]; [8]): 55%
IC50 (human p38 kinase alpha; [6]): 25 nM

Cc1ccc(S(=O)(=O)NC(C)c2[nH]nc(-c3ccc(F)cc3)c2-c2ccncc2)cc1 (centres unmarked) [Example B-0576]
Rat LPS Model % inhib @ dose @ predose time (TNF-α [1]; [3]): 65% @ 3 mpk @ -4h

CC(NS(=O)(=O)c1cccc(Cl)c1)c1[nH]nc(-c2ccc(F)cc2)c1-c1ccncc1 (centres unmarked) [Example B-0639]
Rat LPS Model % inhib @ dose @ predose time (TNF-α [1]; [3]): 50% @ 3 mpk @ -4h

CC(NS(=O)(=O)Cc1ccccc1)c1[nH]nc(-c2ccc(F)cc2)c1-c1ccncc1 (centres unmarked) [Example B-0566]
Rat LPS Model % inhib @ dose @ predose time (TNF-α [1]; [3]): 0% @ 3 mpk @ -4h

N[C@H]1CC[C@@H](c2[nH]nc(-c3cccc(Cl)c3)c2-c2ccncc2)CC1 [Example C-105, 5-cis-(4-AMINOCYCLOHEXYL)-4-(4-PYRIDYL)-3-(3-CHLOROPHENYL)PYRAZOLE]
inhibition in vivo at 5 mg/kg (TNF-α [1]; [8]): 46%
IC50 (human p38 kinase alpha; [6]): 33 nM

5-[2-(1,1-DIMETHYL)AMINOETHYL]-4-(4-PYRIDYL)-3-(4-FLUOROPHENYL)PYRAZOLE [Example C-114]
Rat LPS Model % Inhibition @ dose @ predose time (TNF-α [1]; 5 mpk oral gavage, 4 h before LPS challenge): 39% @ 5 mpk @ −4h

CC(NS(=O)(=O)c1ccc(Cl)s1)c1[nH]nc(-c2ccc(F)cc2)c1-c1ccncc1 (centres unmarked) [Example B-0650]
Rat LPS Model % inhib @ dose @ predose time (TNF-α [1]; [3]): 8% @ 3 mpk @ -4h

O=C(C1CC1)N1CCC(c2[nH]nc(-c3ccc(F)cc3)c2-c2ccncc2)CC1 [Example B-1364]
Rat LPS Model % inhib @ dose @ predose time (TNF-α [1]; [7]): 17% @ 3 mpk @ -4h

CN1CCC(c2[nH]nc(-c3ccc(Cl)cc3)c2-c2ccncn2)CC1 [Example C-137]
inhibition in vivo at 5 mg/kg (TNF-α [1]; [8]): 58%
IC50 (human p38 kinase alpha; [6]): 51 nM

C[C@@H](NS(=O)(=O)c1ccc(C#N)cc1)c1[nH]nc(-c2ccc(F)cc2)c1-c1ccncc1 [Example B-0479]
inhibition in vivo at 3 mg/kg (TNF-α [1]; [4]): 15%
inhibition at 1 µM (TNF-α [2]): 90%
IC50 (human p38 kinase alpha; [6]): 31 nM

CCN(CC)CCn1cc(-c2ccnc(F)c2)c(-c2ccc(F)cc2)n1 [Example A-278, N,N-diethyl-3-(4-fluorophenyl)-4-(2-fluoro-4-pyridinyl)-1H-pyrazole-1-ethanamine]
IC50 (TNF-α [2]; U-937, LPS-stimulated U937 cells, read-out: U937 IC50): 2300 nM
IC50 (human p38 kinase alpha; p38α in vitro, PHAS-I assay procedure, read-out: p38^1 IC50): 285 nM

CN(C)c1cccc2c(S(=O)(=O)NCc3[nH]nc(-c4ccc(F)cc4)c3-c3ccncc3)cccc12 [Example B-0122]
inhibition at 1 µM (TNF-α [2]): 2%
inhibition at 10 µM (human p38 kinase alpha; @ 10.0 uM, read-out: P38 alpha kinase % inhib @ conc.): 79%

O=S(=O)(NCc1[nH]nc(-c2ccc(F)cc2)c1-c1ccncc1)c1ccc(Cl)cc1 [Example B-0225]
inhibition at 1 µM (TNF-α [2]): 37%
IC50 (human p38 kinase alpha; [6]): 47 nM

Cc1cccc(C)c1NC(=O)NCc1[nH]nc(-c2ccc(F)cc2)c1-c1ccncc1 [Example B-0168]
IC50 (TNF-α [2]; [5]): 2360 nM
inhibition at 1 µM (human p38 kinase alpha; [9]): 44%

C[C@@H](NS(=O)(=O)c1cccc(C(F)(F)F)c1)c1[nH]nc(-c2ccc(F)cc2)c1-c1ccncc1 [Example B-0471]
inhibition at 1 µM (TNF-α [2]): 97%
IC50 (human p38 kinase alpha; [6]): 27 nM

C[C@@H](NC(=O)c1ccc(C(F)(F)F)cc1F)c1[nH]nc(-c2ccc(F)cc2)c1-c1ccncc1 [Example B-0508]
inhibition at 1 µM (TNF-α [2]): 48%
IC50 (human p38 kinase alpha; [6]): 2000 nM

Cc1cccc(-c2n[nH]cc2-c2ccnc(C)c2)c1 [Example A-143, 2-methyl-4-[3-(3-methylphenyl)-1H-pyrazol-4-yl]pyridine]
IC50 (TNF-α [2]; U-937, LPS-stimulated U937 cells, read-out: U937 Cell Assay IC50): 301 nM
IC50 (human p38 kinase alpha; activated human p38 kinase alpha, PHAS-I substrate, 50 μM unlabeled ATP, read-out: p38 kinase IC50): < 100 nM

C[C@@H](NC(=O)c1cccnc1)c1[nH]nc(-c2ccc(F)cc2)c1-c1ccncc1 [Example B-0377]
inhibition at 1 µM (TNF-α [2]): 36%
IC50 (human p38 kinase alpha; [6]): 1290 nM

O=C(NCc1[nH]nc(-c2ccc(F)cc2)c1-c1ccncc1)C1CCCC1 [Example B-0079]
inhibition at 1 µM (TNF-α [2]): 13%
inhibition at 1 µM (human p38 kinase alpha; [9]): 93%

Cc1ccccc1C(=O)NCc1[nH]nc(-c2ccc(F)cc2)c1-c1ccncc1 [Example B-0267]
inhibition at 1 µM (TNF-α [2]): 11%
IC50 (human p38 kinase alpha; [6]): 480 nM

O=S(=O)(NCc1[nH]nc(-c2ccc(F)cc2)c1-c1ccncc1)c1cccc2nonc12 [Example B-0252]
inhibition at 1 µM (TNF-α [2]): 54%
IC50 (human p38 kinase alpha; [6]): 41 nM

O=S(=O)(NCc1[nH]nc(-c2ccc(F)cc2)c1-c1ccncc1)c1cccc(C(F)(F)F)c1 [Example B-0247]
inhibition at 1 µM (TNF-α [2]): 75%
IC50 (human p38 kinase alpha; [6]): 82 nM

O=C(NCc1[nH]nc(-c2ccc(F)cc2)c1-c1ccncc1)c1ccc(Cl)c(Cl)c1 [Example B-0071]
inhibition at 1 µM (TNF-α [2]): 31%
inhibition at 1 µM (human p38 kinase alpha; [9]): 86%

CCS(=O)(=O)N[C@H](C)c1[nH]nc(-c2ccc(F)cc2)c1-c1ccncc1 [Example B-0395]
inhibition at 1 µM (TNF-α [2]): 48%
IC50 (human p38 kinase alpha; [6]): 87 nM

Cc1ccc(S(C)(=O)=O)cc1S(=O)(=O)NCc1[nH]nc(-c2ccc(F)cc2)c1-c1ccncc1 [Example B-0260]
inhibition at 1 µM (TNF-α [2]): 23%
IC50 (human p38 kinase alpha; [6]): 560 nM
